Measurements: PubChem BioAssay AID1918947 (Molecular Pharmacology Branch, DTP, NCI, 2023)
Values joined by “and” are separate entries in the source; they are usually repeats but may differ in a detail not shown here. Equal values may be shown once. Values belong to the molecule of their own block, whether it stands above or below them.

Test system: A498 complex spheroid viability
Assay: Anticancer human tumor A498 cell line growth inhibition;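 also: spheroids exposed to agents for seven days before readout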;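 as to viability, T/C: 100% = DMSO vehicle-treated spheroids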
Details: for viability, T/C: stronger effect = lower value
How it was run: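 Multicellular complex spheroids of tumor cells with human endothelial cells (HUVEC) and mesenchymal stem cells; the LSD1 inhibitor iadademstat was combined with standard-of-care or investigational agents. Top concentration at or near clinical Cmax, half-log dilutions; final DMSO ≤0.25%.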

[1] = curve of first compound, second compound 0.1 µM
[2] = curve of first compound, second compound 0.316 µM
[3] = curve of first compound, second compound 1 µM
[4] = curve of first compound, second compound 3.16 µM
[5] = curve of first compound, second compound 10 µM

IC50 (curve of compound): 4720 nM and 4390 nM
SMILES: CC1(C)CCC(CN2CCN(c3ccc(C(=O)NS(=O)(=O)c4ccc(NCC5CCOCC5)c([N+](=O)[O-])c4)c(Oc4cnc5[nH]ccc5c4)c3)CC2)=C(c2ccc(Cl)cc2)C1
viability, T/C (compound 0.0316 µM): 103% and 98.6%
viability, T/C (compound 0.1 µM): 107% and 105%
viability, T/C (compound 0.316 µM): 97.5% and 95.6%
viability, T/C (compound 1 µM): 93% and 88.7%
viability, T/C (compound 3.16 µM): 74.2% and 67.7%
viability, T/C (compound 10 µM): 6.84% and 8.34%

SMILES: NS(=O)(=O)OCC1CC(n2ccc3c(NC4CCc5ccccc54)ncnc32)CC1O (centres undefined) + NC1CCC(NC2CC2c2ccccc2)CC1
IC50 [1]: 20.8 nM
IC50 [2]: 20.2 nM
IC50 [3]: < 9.49 nM
IC50 [4]: < 9.49 nM
IC50 [5]: < 9.49 nM
viability, T/C (second compound 0.1 µM, first compound 0.00949 µM): 61.1%
viability, T/C (second compound 0.1 µM, first compound 0.03 µM): 43.3%
viability, T/C (second compound 0.1 µM, first compound 0.0949 µM): 35%
viability, T/C (second compound 0.1 µM, first compound 0.3 µM): 24%
viability, T/C (second compound 0.1 µM, first compound 0.949 µM): 19.4%
viability, T/C (second compound 0.1 µM, first compound 3 µM): 15.3%
viability, T/C (second compound 0.316 µM, first compound 0.00949 µM): 64.5%
viability, T/C (second compound 0.316 µM, first compound 0.03 µM): 41.2%
viability, T/C (second compound 0.316 µM, first compound 0.0949 µM): 30.8%
viability, T/C (second compound 0.316 µM, first compound 0.3 µM): 22.7%
viability, T/C (second compound 0.316 µM, first compound 0.949 µM): 17.8%
viability, T/C (second compound 0.316 µM, first compound 3 µM): 15.6%
viability, T/C (second compound 1 µM, first compound 0.00949 µM): 47.8%
viability, T/C (second compound 1 µM, first compound 0.03 µM): 29.6%
viability, T/C (second compound 1 µM, first compound 0.0949 µM): 21.4%
viability, T/C (second compound 1 µM, first compound 0.3 µM): 19.5%
viability, T/C (second compound 1 µM, first compound 0.949 µM): 14.3%
viability, T/C (second compound 1 µM, first compound 3 µM): 11.8%
viability, T/C (second compound 3.16 µM, first compound 0.00949 µM): 31.8%
viability, T/C (second compound 3.16 µM, first compound 0.03 µM): 15.6%
viability, T/C (second compound 3.16 µM, first compound 0.0949 µM): 16.6%
viability, T/C (second compound 3.16 µM, first compound 0.3 µM): 11.5%
viability, T/C (second compound 3.16 µM, first compound 0.949 µM): 8.41%
viability, T/C (second compound 3.16 µM, first compound 3 µM): 6.43%
viability, T/C (second compound 10 µM, first compound 0.00949 µM): 11.8%
viability, T/C (second compound 10 µM, first compound 0.03 µM): 8.27%
viability, T/C (second compound 10 µM, first compound 0.0949 µM): 6.84%
viability, T/C (second compound 10 µM, first compound 0.3 µM): 5.05%
viability, T/C (second compound 10 µM, first compound 0.949 µM): 4.15%
viability, T/C (second compound 10 µM, first compound 3 µM): 6.13%

IC50 (curve of compound): > 10000 nM
SMILES: CC(C)c1c(-c2ccccc2)nc2c(C#N)c[nH]n2c1=O
viability, T/C (compound 0.0316 µM): 101% and 102%
viability, T/C (compound 0.1 µM): 104% and 102%
viability, T/C (compound 0.316 µM): 101% and 104%
viability, T/C (compound 1 µM): 103% and 97.9%
viability, T/C (compound 3.16 µM): 102% and 107%
viability, T/C (compound 10 µM): 101% and 107%

SMILES: Nc1ncn(C2CC(O)C(CO)O2)c(=O)n1 (centres undefined) + NC1CCC(NC2CC2c2ccccc2)CC1
IC50 [1]: 177 nM
IC50 [2]: 279 nM
IC50 [3]: 218 nM
IC50 [4]: 195 nM
IC50 [5]: 224 nM
viability, T/C (second compound 0.1 µM, first compound 0.00316 µM): 89.7%
viability, T/C (second compound 0.1 µM, first compound 0.01 µM): 88.5%
viability, T/C (second compound 0.1 µM, first compound 0.0316 µM): 88.5%
viability, T/C (second compound 0.1 µM, first compound 0.1 µM): 60.7%
viability, T/C (second compound 0.1 µM, first compound 0.316 µM): 40%
viability, T/C (second compound 0.1 µM, first compound 1 µM): 36.7%
viability, T/C (second compound 0.316 µM, first compound 0.00316 µM): 93.1%
viability, T/C (second compound 0.316 µM, first compound 0.01 µM): 95.7%
viability, T/C (second compound 0.316 µM, first compound 0.0316 µM): 90.7%
viability, T/C (second compound 0.316 µM, first compound 0.1 µM): 72.9%
viability, T/C (second compound 0.316 µM, first compound 0.316 µM): 47.3%
viability, T/C (second compound 0.316 µM, first compound 1 µM): 40.5%
viability, T/C (second compound 1 µM, first compound 0.00316 µM): 89.2%
viability, T/C (second compound 1 µM, first compound 0.01 µM): 89.7%
viability, T/C (second compound 1 µM, first compound 0.0316 µM): 89.2%
viability, T/C (second compound 1 µM, first compound 0.1 µM): 62.4%
viability, T/C (second compound 1 µM, first compound 0.316 µM): 46.4%
viability, T/C (second compound 1 µM, first compound 1 µM): 34.9%
viability, T/C (second compound 3.16 µM, first compound 0.00316 µM): 82.5%
viability, T/C (second compound 3.16 µM, first compound 0.01 µM): 88.4%
viability, T/C (second compound 3.16 µM, first compound 0.0316 µM): 78.4%
viability, T/C (second compound 3.16 µM, first compound 0.1 µM): 66.6%
viability, T/C (second compound 3.16 µM, first compound 0.316 µM): 38.1%
viability, T/C (second compound 3.16 µM, first compound 1 µM): 29.3%
viability, T/C (second compound 10 µM, first compound 0.00316 µM): 78%
viability, T/C (second compound 10 µM, first compound 0.01 µM): 78.2%
viability, T/C (second compound 10 µM, first compound 0.0316 µM): 79.9%
viability, T/C (second compound 10 µM, first compound 0.1 µM): 68.4%
viability, T/C (second compound 10 µM, first compound 0.316 µM): 42.2%
viability, T/C (second compound 10 µM, first compound 1 µM): 31.9%
